Data set [1] is described as follows: Apparent permeability from apical to basolateral side in human Caco2 cells at 10 uM measured for 120 mins by LC-MS/MS analysis. To be noted: Caco-2. On the technique in general: Passage across Caco-2 layers is used to estimate intestinal permeability.
Data set [2] can be described thus: Metabolic stability in pooled human liver microsomes assessed as half life at 3 uM measured up to 45 mins in presence of NADPH by LC-MS/MS analysis. It is filed as ADME, Microsome. Particulars: pooled liver microsomes.
In data set [3] the target is Voltage-gated inwardly rectifying potassium channel KCNH2 (Homo sapiens, UniProt Q12809). As to the kind of experiment: Inhibition of human ERG expressed in CHO cells at -80 mV holding potential by IonWorks patch-clamp electrophysiology assay.
The test system of another data set is PC-9. Kind of data set: Antiproliferative activity against human PC9 cells measured for 96 hrs by sytox green dye staining based proliferation assay. It is filed as functional, cell-based. To be noted: PC-9, 96 h.
For another data set, the system named is A549. As to the kind of experiment: Antiproliferative activity against human A549 cells assessed as inhibition of cell growth incubated for 72 hrs by Cell Titer Glo luminescent cell viability assay. It is filed as functional, cell-based. Particulars: A549, 72 h. Background: ATP-based viability assays read luminescence as a measure of living cells.
Another data set has as its system AU565. Kind of data set: Antiproliferative activity against human AU565 cells incubated for 72 hrs by ATPlite luminescence assay. It counts as functional, cell-based. Particulars: AU565, 72 h.
Another data set relates to C-33-A. Kind of data set: Antiproliferative activity against human C-33A cells incubated for 72 hrs by ATPlite luminescence assay. It is filed as functional, cell-based.
A further data set concerns CAL-27. As to the kind of experiment: Antiproliferative activity against human CAL27 cells. It is filed as functional, cell-based.
The next data set has as its system FaDu. Kind of data set: Antiproliferative activity against human FaDU cells assessed as inhibition of cell growth incubated for 72 hrs by Cell Titer Glo luminescent cell viability assay. It counts as functional, cell-based.
For the next data set, the system named is K562. As to the kind of experiment: Antiproliferative activity against human K562 cells assessed as inhibition of cell growth incubated for 72 hrs by Cell Titer Glo luminescent cell viability assay. It counts as functional, cell-based. Particulars: K562, 72 h.
For a further data set, the system named is BXPC-3. As to the kind of experiment: Antiproliferative activity against human BXPC-3 cells measured for 96 hrs by sytox green dye staining based proliferation assay. Particulars: BXPC-3, 96 h. It counts as functional, cell-based.
Data set [4] in a line: Apparent permeability from basolateral to apical side in human Caco2 cells at 10 uM measured for 120 mins by LC-MS/MS analysis. Particulars: Caco-2.
Data set [5] deals with Inhibitor of nuclear factor kappa-B kinase subunit beta (Homo sapiens) (UniProt O14920). As to the kind of experiment: Inhibition of recombinant human full-length GST-tagged IKBKB expressed in baculovirus expression system at 500 nM using Ser/Thr 05 as substrate incubated for 1 hr in presence of ATP at its Km concentration by Z'-LYTE assay relative to control.
In data set [6] the target is Mitogen-activated protein kinase 1 (Homo sapiens) (UniProt P28482). As to the kind of experiment: Inhibition of recombinant full length GST-tagged human MAPK1 expressed in Escherichia coli at 500 nM using Ser/Thr 03 as substrate incubated for 1 hr in presence of 100 uM ATP by Z'-LYTE assay relative to control.
A further data set concerns A-431. As to the kind of experiment: Antiproliferative activity against human A431 cells assessed as inhibition of cell growth incubated for 72 hrs by Cell Titer Glo luminescent cell viability assay. Particulars: A-431, 72 h. It is filed as functional, cell-based.
Data set [7] concerns the target T1, Epidermal growth factor receptor (Homo sapiens, UniProt P00533). Kind of data set: Inhibition of EGFR (unknown origin) using Tyr 04 peptide as substrate incubated for 1 hr by Z'-LYTE assay.
Data set [8] addresses Tyrosine-protein kinase ABL1 (Homo sapiens) (UniProt P00519). As to the kind of experiment: Inhibition of recombinant full length human His-tagged ABL1 cytoplasmic domain expressed in baculovirus expression system at 500 nM using Tyr 02 peptide as substrate incubated for 1 hr in presence of ATP at its Km concentration by Z'-LYTE assay relative to control.
Data set [9] addresses Aurora kinase B (Homo sapiens) (UniProt Q96GD4). Kind of data set: Inhibition of recombinant full length His-tagged human AURKB expressed in baculovirus expression system at 500 nM using Ser/Thr 01 as substrate incubated for 1 hr in presence of ATP at its Km concentration by Z'-LYTE assay relative to control.
Data set [10] concerns the target T2, Ephrin type-A receptor 1 (Homo sapiens) (UniProt P21709).
T2 sequence (whole entry): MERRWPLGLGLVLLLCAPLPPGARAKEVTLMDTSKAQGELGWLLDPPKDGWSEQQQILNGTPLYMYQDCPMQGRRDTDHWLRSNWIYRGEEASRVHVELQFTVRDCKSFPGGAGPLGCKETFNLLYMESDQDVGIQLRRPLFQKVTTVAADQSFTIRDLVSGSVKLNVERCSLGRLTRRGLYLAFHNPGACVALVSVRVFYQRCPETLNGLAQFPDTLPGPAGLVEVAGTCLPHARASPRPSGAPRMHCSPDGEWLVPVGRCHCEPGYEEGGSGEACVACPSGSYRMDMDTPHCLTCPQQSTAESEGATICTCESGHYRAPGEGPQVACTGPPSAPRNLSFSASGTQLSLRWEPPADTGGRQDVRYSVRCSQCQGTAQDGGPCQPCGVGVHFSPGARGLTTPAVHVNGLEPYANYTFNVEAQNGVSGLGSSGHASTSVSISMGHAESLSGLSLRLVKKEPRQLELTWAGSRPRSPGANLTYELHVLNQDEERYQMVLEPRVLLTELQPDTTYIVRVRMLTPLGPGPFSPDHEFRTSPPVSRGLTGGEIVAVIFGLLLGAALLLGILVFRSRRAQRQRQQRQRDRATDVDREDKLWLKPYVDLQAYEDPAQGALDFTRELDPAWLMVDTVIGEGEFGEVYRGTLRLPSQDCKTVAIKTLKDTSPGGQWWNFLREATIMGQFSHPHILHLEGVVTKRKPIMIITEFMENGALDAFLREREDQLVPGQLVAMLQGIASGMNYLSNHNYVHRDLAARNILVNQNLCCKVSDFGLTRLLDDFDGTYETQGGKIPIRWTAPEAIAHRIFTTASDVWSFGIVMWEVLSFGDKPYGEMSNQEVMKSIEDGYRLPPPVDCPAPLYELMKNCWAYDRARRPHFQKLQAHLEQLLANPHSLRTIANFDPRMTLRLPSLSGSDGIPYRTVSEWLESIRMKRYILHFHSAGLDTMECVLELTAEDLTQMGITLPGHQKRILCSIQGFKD
Kind of data set: Inhibition of recombinant human GST-tagged EPHA1 (568 to 976 residues) expressed in baculovirus expression system at 500 nM using Tyr 02 peptide as substrate incubated for 1 hr in presence of ATP at its Km concentration by Z'-LYTE assay relative to control.

The target in data set [11] is Platelet-derived growth factor receptor alpha (Homo sapiens) (UniProt P16234). As to the kind of experiment: Inhibition of recombinant human GST-tagged PDGFRalpha (550 to 1089 residues) expressed in baculovirus expression system at 500 nM using Tyr 04 as substrate incubated for 1 hr in presence of ATP at its Km concentration by Z'-LYTE assay relative to control.
The target in data set [12] is Proto-oncogene tyrosine-protein kinase receptor Ret (Homo sapiens) (UniProt P07949). Kind of data set: Inhibition of recombinant human GST-tagged RET (658 to 1114 residues) expressed in baculovirus expression system at 500 nM using Tyr 02 as substrate incubated for 1 hr in presence of ATP at its Km concentration by Z'-LYTE assay relative to control.
For data set [13], the target named is T1, Epidermal growth factor receptor. Particulars: dose 100.0 nM, time 1.0 hrs.

A value given as a limit tells only on which side of the number the result lay.

Aurora kinase B (Homo sapiens), sequence (Q96GD4 whole entry): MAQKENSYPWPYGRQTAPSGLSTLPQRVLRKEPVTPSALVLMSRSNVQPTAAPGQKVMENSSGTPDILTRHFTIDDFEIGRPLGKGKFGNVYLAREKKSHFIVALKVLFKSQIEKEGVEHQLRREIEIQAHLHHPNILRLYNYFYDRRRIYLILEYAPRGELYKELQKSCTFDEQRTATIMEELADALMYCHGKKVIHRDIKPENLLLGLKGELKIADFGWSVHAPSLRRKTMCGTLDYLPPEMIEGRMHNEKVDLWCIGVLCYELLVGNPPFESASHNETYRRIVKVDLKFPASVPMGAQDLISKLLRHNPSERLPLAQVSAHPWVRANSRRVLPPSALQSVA
T1 sequence (P00533 whole entry, the tested form may be a part): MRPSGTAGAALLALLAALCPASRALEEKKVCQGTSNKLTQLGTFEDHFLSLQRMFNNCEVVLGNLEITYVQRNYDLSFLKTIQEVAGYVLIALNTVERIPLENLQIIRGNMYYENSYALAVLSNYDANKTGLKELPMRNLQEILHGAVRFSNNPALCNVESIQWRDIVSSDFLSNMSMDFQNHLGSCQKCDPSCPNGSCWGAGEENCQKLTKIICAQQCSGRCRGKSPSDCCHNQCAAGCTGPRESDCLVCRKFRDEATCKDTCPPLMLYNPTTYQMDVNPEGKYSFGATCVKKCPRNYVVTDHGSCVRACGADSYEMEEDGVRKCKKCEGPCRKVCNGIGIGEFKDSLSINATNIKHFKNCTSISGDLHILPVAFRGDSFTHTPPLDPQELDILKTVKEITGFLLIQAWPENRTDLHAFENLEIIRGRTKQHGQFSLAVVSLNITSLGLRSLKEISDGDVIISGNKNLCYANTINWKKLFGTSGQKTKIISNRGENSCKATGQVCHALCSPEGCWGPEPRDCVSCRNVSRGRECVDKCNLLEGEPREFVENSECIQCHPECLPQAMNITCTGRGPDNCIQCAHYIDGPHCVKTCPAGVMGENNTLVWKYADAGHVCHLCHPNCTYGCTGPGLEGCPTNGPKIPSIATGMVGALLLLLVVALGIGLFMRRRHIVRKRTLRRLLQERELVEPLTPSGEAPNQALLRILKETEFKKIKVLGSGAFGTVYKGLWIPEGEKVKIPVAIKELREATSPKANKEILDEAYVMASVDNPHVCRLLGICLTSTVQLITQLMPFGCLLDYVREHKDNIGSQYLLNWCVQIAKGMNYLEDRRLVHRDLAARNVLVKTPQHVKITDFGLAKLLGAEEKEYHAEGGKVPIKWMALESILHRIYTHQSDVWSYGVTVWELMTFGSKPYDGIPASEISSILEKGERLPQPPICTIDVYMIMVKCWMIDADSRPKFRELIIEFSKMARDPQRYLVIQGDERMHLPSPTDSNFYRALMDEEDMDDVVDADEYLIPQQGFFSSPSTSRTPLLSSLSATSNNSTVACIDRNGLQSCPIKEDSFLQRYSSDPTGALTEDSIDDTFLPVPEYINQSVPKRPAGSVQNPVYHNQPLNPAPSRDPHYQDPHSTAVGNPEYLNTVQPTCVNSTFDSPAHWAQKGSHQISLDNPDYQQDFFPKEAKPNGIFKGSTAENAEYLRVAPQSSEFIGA
Tyrosine-protein kinase ABL1 (Homo sapiens), sequence (P00519 whole entry, the tested form may be a part): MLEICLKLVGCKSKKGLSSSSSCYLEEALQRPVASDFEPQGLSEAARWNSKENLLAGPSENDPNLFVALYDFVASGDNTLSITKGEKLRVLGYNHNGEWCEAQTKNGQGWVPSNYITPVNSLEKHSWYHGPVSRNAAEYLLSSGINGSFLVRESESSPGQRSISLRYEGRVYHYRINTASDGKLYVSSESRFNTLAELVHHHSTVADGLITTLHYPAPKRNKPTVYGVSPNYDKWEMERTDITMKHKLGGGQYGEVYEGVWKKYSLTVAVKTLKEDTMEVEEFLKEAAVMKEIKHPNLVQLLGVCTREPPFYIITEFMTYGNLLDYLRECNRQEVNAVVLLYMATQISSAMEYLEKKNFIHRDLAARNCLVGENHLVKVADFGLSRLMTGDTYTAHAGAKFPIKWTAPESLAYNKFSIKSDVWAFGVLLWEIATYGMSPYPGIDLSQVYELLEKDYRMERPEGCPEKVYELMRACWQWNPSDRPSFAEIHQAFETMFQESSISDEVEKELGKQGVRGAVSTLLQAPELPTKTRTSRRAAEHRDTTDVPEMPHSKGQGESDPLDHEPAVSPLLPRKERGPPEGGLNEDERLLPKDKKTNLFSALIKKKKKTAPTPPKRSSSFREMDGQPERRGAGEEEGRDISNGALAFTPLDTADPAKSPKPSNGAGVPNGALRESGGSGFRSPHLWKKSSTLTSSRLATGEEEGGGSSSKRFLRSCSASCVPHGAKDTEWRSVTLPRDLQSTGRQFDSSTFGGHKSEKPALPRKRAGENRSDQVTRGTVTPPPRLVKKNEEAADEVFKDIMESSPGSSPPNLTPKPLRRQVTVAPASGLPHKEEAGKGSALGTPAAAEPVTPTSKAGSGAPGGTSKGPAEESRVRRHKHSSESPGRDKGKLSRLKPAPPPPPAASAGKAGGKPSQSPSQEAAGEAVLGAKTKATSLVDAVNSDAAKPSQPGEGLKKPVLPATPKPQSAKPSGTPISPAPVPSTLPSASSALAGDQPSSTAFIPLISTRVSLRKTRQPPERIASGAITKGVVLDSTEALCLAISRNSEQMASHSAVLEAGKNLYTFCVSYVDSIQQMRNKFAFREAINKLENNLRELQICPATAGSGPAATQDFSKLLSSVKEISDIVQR
Mitogen-activated protein kinase 1 (Homo sapiens), sequence (P28482 whole entry): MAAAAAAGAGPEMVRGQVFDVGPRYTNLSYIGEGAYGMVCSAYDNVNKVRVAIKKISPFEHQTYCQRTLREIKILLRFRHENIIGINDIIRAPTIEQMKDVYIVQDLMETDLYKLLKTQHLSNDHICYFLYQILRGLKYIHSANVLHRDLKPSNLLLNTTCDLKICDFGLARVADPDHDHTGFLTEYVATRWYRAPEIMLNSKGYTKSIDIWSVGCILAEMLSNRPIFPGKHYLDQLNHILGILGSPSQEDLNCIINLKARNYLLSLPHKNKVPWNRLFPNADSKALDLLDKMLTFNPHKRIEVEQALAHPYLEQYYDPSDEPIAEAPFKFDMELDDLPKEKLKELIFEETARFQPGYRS
Proto-oncogene tyrosine-protein kinase receptor Ret (Homo sapiens), sequence (P07949 whole entry, the tested form may be a part): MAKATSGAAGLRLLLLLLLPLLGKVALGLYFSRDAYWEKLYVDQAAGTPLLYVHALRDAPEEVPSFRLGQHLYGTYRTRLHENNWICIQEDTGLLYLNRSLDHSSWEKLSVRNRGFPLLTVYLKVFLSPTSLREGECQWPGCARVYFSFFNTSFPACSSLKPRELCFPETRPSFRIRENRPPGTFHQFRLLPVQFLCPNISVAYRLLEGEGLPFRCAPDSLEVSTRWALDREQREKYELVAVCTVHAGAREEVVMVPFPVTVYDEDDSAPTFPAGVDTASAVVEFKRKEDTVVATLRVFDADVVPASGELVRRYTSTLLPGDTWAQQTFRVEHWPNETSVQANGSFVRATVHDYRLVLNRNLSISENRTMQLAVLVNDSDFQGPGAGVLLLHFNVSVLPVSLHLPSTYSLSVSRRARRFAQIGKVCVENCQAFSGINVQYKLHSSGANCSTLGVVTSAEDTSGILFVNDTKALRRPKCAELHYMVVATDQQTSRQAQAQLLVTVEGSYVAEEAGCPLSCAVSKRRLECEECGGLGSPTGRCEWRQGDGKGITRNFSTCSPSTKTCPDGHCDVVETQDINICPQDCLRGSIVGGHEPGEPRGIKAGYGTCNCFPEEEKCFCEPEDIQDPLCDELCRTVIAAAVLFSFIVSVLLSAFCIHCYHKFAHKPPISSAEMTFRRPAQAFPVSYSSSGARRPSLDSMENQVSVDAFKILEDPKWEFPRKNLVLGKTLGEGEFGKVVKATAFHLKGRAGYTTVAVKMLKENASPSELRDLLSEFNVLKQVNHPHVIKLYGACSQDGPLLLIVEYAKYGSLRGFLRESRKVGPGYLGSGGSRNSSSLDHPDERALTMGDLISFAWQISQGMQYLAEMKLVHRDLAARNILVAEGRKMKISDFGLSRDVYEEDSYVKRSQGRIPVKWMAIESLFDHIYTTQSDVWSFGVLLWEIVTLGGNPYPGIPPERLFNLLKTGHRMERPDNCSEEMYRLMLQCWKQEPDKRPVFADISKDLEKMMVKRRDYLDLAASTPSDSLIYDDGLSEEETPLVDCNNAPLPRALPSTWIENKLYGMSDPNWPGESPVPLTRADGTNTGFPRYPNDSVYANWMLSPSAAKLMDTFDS
Inhibitor of nuclear factor kappa-B kinase subunit beta (Homo sapiens), sequence (O14920 whole entry): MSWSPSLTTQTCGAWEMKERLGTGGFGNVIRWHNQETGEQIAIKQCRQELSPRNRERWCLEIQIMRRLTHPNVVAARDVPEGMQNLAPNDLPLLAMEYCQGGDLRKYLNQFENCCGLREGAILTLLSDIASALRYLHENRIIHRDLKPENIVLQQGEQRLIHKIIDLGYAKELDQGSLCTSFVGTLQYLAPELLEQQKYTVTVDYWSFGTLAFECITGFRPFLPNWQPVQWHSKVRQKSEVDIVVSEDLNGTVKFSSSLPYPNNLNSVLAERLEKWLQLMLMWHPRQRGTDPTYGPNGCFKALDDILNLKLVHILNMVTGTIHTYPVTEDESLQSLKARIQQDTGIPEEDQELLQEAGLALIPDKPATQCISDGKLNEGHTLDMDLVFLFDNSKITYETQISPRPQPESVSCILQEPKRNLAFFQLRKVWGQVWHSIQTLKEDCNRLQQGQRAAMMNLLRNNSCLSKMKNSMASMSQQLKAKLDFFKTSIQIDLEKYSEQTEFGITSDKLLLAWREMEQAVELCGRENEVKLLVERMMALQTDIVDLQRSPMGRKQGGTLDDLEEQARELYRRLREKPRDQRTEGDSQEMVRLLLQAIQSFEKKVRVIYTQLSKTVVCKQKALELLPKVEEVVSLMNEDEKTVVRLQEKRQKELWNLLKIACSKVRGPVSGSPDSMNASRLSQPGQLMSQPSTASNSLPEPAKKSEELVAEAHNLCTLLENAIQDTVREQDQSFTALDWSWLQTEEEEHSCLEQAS

Usually Papp A→B stands for the apparent permeability from the apical to the basolateral side of a cell layer. As usually defined, the half-life is the time needed for the level to fall by half in the phase considered. What is called IC50 is the concentration that inhibits the measured activity by half. Broadly, the Papp B→A is the apparent permeability from the basolateral to the apical side of a cell layer. For orientation: inhibition means the drop in the measured response relative to a control, in per cent. Take `C#Cc1cccc(Nc2ncnc3cc(OCCOC)c(OCCOC)cc23)c1` [ERLOTINIB]: the apical-to-basolateral permeability (Papp A→B) at 2 h, 10 µM in data set [1] was 38.8 ×10⁻⁶ cm/s. In [2], the half-life at 3 µM amounted to 31.7 min. Also, the IC50 in data set [3] is greater than 25 µM; with PC-9, less than 0.1 µM; with A549, greater than 100 µM; in the data set with AU565, 3.3 µM; with C-33-A it was 0.9 µM; with CAL-27 it was 1.3 µM. The concentration for half-maximal inhibition (IC50) is greater than 11 µM with FaDu, 55 µM with K562 and 1.9 µM in the data set on BXPC-3. The Papp B→A at 2 h, 10 µM in [4] was 31 ×10⁻⁶ cm/s. Moreover, the inhibition was -5% in data set [5] and 7% in data set [6].
Take `COc1ccccc1-c1cc2c(N[C@H](CO)c3ccccc3)ncnc2[nH]1`: the IC50 amounted to 0.4 µM in the data set with A-431 and 0.0008 µM in [7]. Besides, the inhibition in data set [8] is 50%; in data set [9], 5%; in data set [10], 15%; in data set [6], 1%; in [11], 6%; in data set [12], 15%. For the same compound, the inhibition in data set [13] was 100%.
On to `CCOc1ccccc1-c1cc2c(N[C@H](CO)c3ccccc3)ncnc2[nH]1`, for which the inhibition was 33% in data set [8]; 1% in data set [9]; 13% in data set [10]; 1% in data set [6]; -8% in data set [11]; 9% in data set [12].
As for `CN(C)CCNCc1ccc(-c2cc3c(N[C@H](CO)c4ccccc4)ncnc3[nH]2)cc1F`, the inhibition is 87% in data set [8], 17% in data set [9], 48% in data set [10] and 25% in data set [12].
Consider `OC[C@@H](Nc1ncnc2[nH]c(-c3ccccc3)cc12)c1ccccc1`, for which the half-inhibitory concentration (IC50) with PC-9 is less than 0.1 µM; with A549 it was greater than 100 µM; in the data set with AU565 it was 2.5 µM; with C-33-A it was 0.7 µM; with CAL-27, 2.7 µM; in the data set on FaDu it was greater than 33 µM. For the same compound, the IC50 was 15 µM in the data set with K562, 15 µM in the data set with BXPC-3 and 0.0004 µM in data set [7]. The inhibition in [8] came out at 65%; in [9] it was 13%; in data set [10], 19%; in [6], 1%; in data set [12] it was 14%; in [13], 99%.
Take `OCC[C@@H](Nc1ncnc2[nH]c(-c3ccccc3)cc12)c1ccccc1`: the inhibition amounted to 38% in data set [8]; 7% in [9]; 13% in [10]; 5% in [6]; 2% in [12].

Source of the values: ChEMBL document CHEMBL4715760, “Balancing potency, metabolic stability and permeability in pyrrolopyrimidine-based EGFR inhibitors” (Eur J Med Chem, 2016).
